Target: T1, Dimer of Gag-Pol polyprotein [501-599,Q508K,L534I,L564I,C568A,C596A] (Human immunodeficiency virus 1, UniProt P03367, C568A/C596A/L534I/L564I/Q508K)
T1 construct: 501-599
Assay: Protease Inhibition Assay
Settings: pH 6.4; 25 °C
Procedure: The Ki values were determined using fluorogenic substrate, 2-(aminobenzoyl)-Thr-Ile-Nle-Phe(p-NO2)-Gln-ArgNH2. A standard curve relating changes in fluorescent intensity to changes in concentration of product was used to convert fluorescent changes into molar velocities. The amount of cleavage was determined by HPLC.

COc1ccc(S(=O)(=O)N(CC(C)C)C[C@@H](O)[C@@H]2CCCC/C=C\COc3c(O)cccc3C(=O)N2)cc1 [(2R)-2-hydroxy-2-[(9S)-15-hydroxy-11-oxo-2,5,6,7,8,9,10,11-octahydro-1,10-benzoxazacyclotridecin-9-yl]-N-(4-methoxyphenyl)-N-(2-methylpropyl)ethane-1-sulfonamido]
Ki: 2 nM
